From ChEMBL document CHEMBL5512603, “Development of de-novo coronavirus 3-chymotrypsin-like protease (3CLpro) inhibitors since COVID-19 outbreak: A strategy to tackle challenges of persistent virus infection” (Eur J Med Chem, 2024)

Experiments:
[1] = molecular target: von Hippel-Lindau disease tumor suppressor-SARS-Cov-2 polyprotein (Severe acute respiratory syndrome coronavirus 2, UniProt P0DTD1+P40337); assay: PROTAC activity at SARS-CoV-2 Main protease/VHL (unknown origin) in SARS-CoV-2 infected african green monkey Vero cell assessed as inhibition of virus-mediated cytopathic effect measured after 72 hrs; assay type: cell-based
SARS-CoV-2 [2] = assay: Antiviral activity against SARS-CoV-2; assay type: functional, organism-based; conditions: Severe acute respiratory syndrome coronavirus 2
[3] = molecular target: T1, Replicase polyprotein 1ab (Severe acute respiratory syndrome coronavirus 2, UniProt P0DTD1); assay: Inhibition of SARS-CoV-2 recombinant 3CLpro using fluorogenic substrate (Dabcyl-KTSAVLQ]SGFRK M-E
SARS-CoV-2 [4] = assay: Antiviral activity against SARS-CoV-2 infected in HAPEpIC cells at 0.01 MOI assessed as reduction in viral RNA copies by RT-qPCR analysis; assay type: functional, organism-based; conditions: Severe acute respiratory syndrome coronavirus 2
SARS-CoV-2 [5] = assay: Antiviral activity against SARS-CoV-2 infected in African green monkey Vero E6 cells at 0.1 MOI assessed as inhibition of virus induced cytopathic effect by CCK8 assay; assay type: functional, organism-based; conditions: Severe acute respiratory syndrome coronavirus 2, Vero C1008
[6] = Bioavailability in Sprague-Dawley rat at 20 mg/kg, ip; assay type: ADME, organism-based; conditions: in vivo
[7] = Oral bioavailability in Sprague-Dawley rat at 20 mg/kg; assay type: ADME, organism-based; conditions: in vivo
SARS-CoV-2 [8] = assay: Antiviral activity against SARS-CoV-2 Canada/Vido 01/2020 infected in African green monkey Vero E6 cells assessed as inhibition of viral replication incubated for 48 hrs by plaque reduction assay; assay type: functional, organism-based; conditions: Severe acute respiratory syndrome coronavirus 2, Canada/Vido 01/2020, Vero C1008, 48 h
SARS-CoV-2 [9] = assay: Antiviral activity against SARS-CoV-2 infected in African green monkey Vero E6 cells assessed as inhibition of virus induced cytopathic effect by CellTiter-Glo luminescent cell viability assay; assay type: functional, organism-based; conditions: Severe acute respiratory syndrome coronavirus 2, Vero C1008
[10] = molecular target: T1, Replicase polyprotein 1ab; assay: Inhibition of SARS-CoV-2 3CLp using fluorescent substrate by FRET assay
[11] = molecular target: T1, Replicase polyprotein 1ab; assay: Inhibition of recombinant SARS-CoV-2 3CLp using fluorogenic substrate by microplate reader
[12] = Oral bioavailability in Sprague-Dawley rat at 10 mg/kg; assay type: ADME, organism-based; conditions: in vivo
SARS-CoV-2 [13] = assay: Antiviral activity against SARS-CoV-2 infected in African green monkey Vero E6 cells assessed as inhibition of viral replication incubated by plaque reduction assay; assay type: functional, organism-based; conditions: Severe acute respiratory syndrome coronavirus 2, Vero C1008
[14] = molecular target: Protein cereblon/Replicase polyprotein 1ab (Severe acute respiratory syndrome coronavirus 2, UniProt P0DTD1+Q96SW2); assay: PROTAC activity at SARS-CoV-2 Main protease/CRBN (unknown origin) in SARS-CoV-2 infected african green monkey Vero cell assessed as inhibition of virus-mediated cytopathic effect measured after 72 hrs; assay type: cell-based
SARS-CoV-2 [15] = assay: Antiviral activity against wild type SARS-CoV-2 infected in human Calu-3 cells; assay type: functional, organism-based; conditions: Severe acute respiratory syndrome coronavirus 2, Calu-3

Chain of von Hippel-Lindau disease tumor suppressor-SARS-Cov-2 polyprotein (P40337 whole entry, other chains not shown): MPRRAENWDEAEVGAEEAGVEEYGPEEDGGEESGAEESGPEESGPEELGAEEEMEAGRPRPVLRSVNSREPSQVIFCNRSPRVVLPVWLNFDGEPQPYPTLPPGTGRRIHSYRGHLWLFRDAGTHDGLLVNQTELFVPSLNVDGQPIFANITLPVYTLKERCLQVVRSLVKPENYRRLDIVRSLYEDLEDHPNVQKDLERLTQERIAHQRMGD
Chain of Protein cereblon/Replicase polyprotein 1ab (Q96SW2 whole entry, other chains not shown): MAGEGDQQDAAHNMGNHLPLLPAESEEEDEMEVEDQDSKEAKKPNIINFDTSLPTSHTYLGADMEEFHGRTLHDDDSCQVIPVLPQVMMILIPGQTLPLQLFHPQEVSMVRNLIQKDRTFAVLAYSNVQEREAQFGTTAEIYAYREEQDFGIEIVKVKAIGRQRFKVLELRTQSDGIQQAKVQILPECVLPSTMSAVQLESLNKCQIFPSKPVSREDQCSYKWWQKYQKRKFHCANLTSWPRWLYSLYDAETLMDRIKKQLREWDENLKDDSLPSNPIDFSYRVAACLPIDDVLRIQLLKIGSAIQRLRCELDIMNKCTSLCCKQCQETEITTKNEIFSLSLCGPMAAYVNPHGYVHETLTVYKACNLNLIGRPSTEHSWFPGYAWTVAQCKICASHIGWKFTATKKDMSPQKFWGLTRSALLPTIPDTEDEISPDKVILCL

With `Cc1ncsc1-c1ccc(CNC(=O)[C@@H]2C[C@@H](O)CN2C(=O)[C@@H](NC(=O)CCOCCOCCOCCn2nnc(COc3ccc(OC(=O)N[C@@H](CC(C)C)C(=O)N[C@@H](C[C@@H]4CCNC4=O)C(O)S(=O)(=O)O)cc3)c2C)C(C)(C)C)cc1` (some centres undefined) the EC50 [1] was 210 nM.

With `COc1cc(O)c2c(=O)c(O)c(-c3cc(O)c(O)c(O)c3)oc2c1` the EC50 (SARS-CoV-2 [2]) was 12600 nM.

Compound `CNC(=O)c1cc(Br)cc([N+](=O)[O-])c1N[C@H]1CCCC[C@H]1NC(=O)c1cncc2cc(O)ccc12` has an IC50 [3] of 120000 nM.

With `O=C[C@@H](C[C@H]1CCNC1=O)NC(=O)[C@H]1[C@@H]2CCC[C@@H]2CN1C(=O)COc1ccc(Cl)cc1Cl` the EC50 (SARS-CoV-2 [4]) was 1.1 nM, the EC50 (SARS-CoV-2 [5]) was 540 nM and the bioavailability [6] was 76.2%. For the same compound, the bioavailability [7] was 14.6%.

With `COc1cccc2[nH]c(C(=O)N[C@@H](CC(C)C)C(=O)N[C@H](C#N)C[C@@H]3CCNC3=O)cc12` the EC50 (SARS-CoV-2 [8]) was > 5000 nM.

Compound `CNC(=O)[C@@H](Cc1cccc(F)c1)NC(=O)C1CN(C(=O)c2cncc3cccc(O)c23)CCN1Cc1ccc(Cl)cc1Cl` (some centres undefined) has an IC50 [3] of 165000 nM.

Work on `O=C1c2c(O)cc(O)cc2O[C@H](c2cc(O)c(O)c(O)c2)[C@H]1O` [AMPELOPSIN] yielded an EC50 (SARS-CoV-2 [2]) of 13600 nM.

Work on `Cc1ncsc1-c1ccc(CNC(=O)[C@@H]2C[C@@H](O)CN2C(=O)[C@@H](NC(=O)CCOCCOCCOCCn2nnc(COC3CCC(OC(=O)N[C@@H](CC(C)C)C(=O)N[C@H](C=O)C[C@@H]4CCNC4=O)CC3)c2C)C(C)(C)C)cc1` (some centres undefined) yielded an EC50 [1] of 350 nM.

For `CC(C)[C@H]1C(=O)N2C[C@]3(C[C@H]2C#N)C(=O)Nc2ccc(cc23)CCCCCN1C(=O)C1CN(c2ccccc2)N=N1` (some centres undefined), the EC50 (SARS-CoV-2 [9]) was < 100 nM and the IC50 [10] was < 100 nM.

`O=c1c(O)c(-c2cc(O)c(O)c(O)c2)oc2cc(OP(=O)(Oc3ccccc3)Oc3ccccc3)cc(O)c12` gave an EC50 (SARS-CoV-2 [2]) of 3150 nM.

In the case of `O=C1NCC[C@H]1C[C@H](NC(=O)[C@@H]1[C@H]2CCC[C@H]2CN1C(=O)COc1ccc(Cl)cc1Cl)C(=O)CF`, the IC50 [11] is reported as 18 nM, the bioavailability [12] is reported as 55.1% and the EC50 (SARS-CoV-2 [13]) is reported as 240 nM.

With `CNC(=O)c1cc(Br)cc([N+](=O)[O-])c1N[C@@H]1CCC[C@H](NC(=O)c2cncc3cccc(O)c23)C1` the IC50 [3] was 62500 nM.

In the case of `N#C[C@@H]1C[C@]23CN1C(=O)[C@H](c1ccccc1)N(C(=O)C1CN(c4ccc(F)cc4)N=N1)CCCCCc1ccc(c2c1)NC3=O` (some centres undefined), the EC50 (SARS-CoV-2 [9]) is reported as > 1000 nM and the IC50 [10] is reported as < 100 nM.

Work on `O=C[C@H](C[C@@H]1CCNC1=O)NC(=O)[C@@H]1[C@H]2CCC[C@H]2CN1C(=O)COc1ccc(Cl)c(Cl)c1` yielded an IC50 [11] of 19 nM and a bioavailability [12] of 5.1%.

For `Cc1ncsc1-c1ccc(CNC(=O)[C@@H]2C[C@@H](O)CC2C(=O)[C@@H](NC(=O)CCC(=O)NCCOCCn2nnc(COC(=O)N[C@@H](CC(C)C)C(=O)N[C@@H](C[C@@H]3CCNC3=O)C(O)S(=O)(=O)O)c2C)C(C)(C)C)cc1` (some centres undefined), the EC50 [1] was 10100 nM.

In the case of `CC1(C)[C@@H]2[C@@H](C(=O)N[C@H](C=O)C[C@@H]3CCNC3=O)N(C(=O)COc3ccc(Cl)cc3Cl)C[C@@H]21`, the IC50 [11] is reported as 10 nM and the bioavailability [12] is reported as 4.1%.

In the case of `Cc1c(COC2CCC(OC(=O)N[C@@H](CC(C)C)C(=O)N[C@H](C=O)C[C@@H]3CCNC3=O)CC2)nnn1CCOCCNC(=O)CCC(=O)Nc1cccc2c1C(=O)N(C1CCC(=O)NC1=O)C2=O` (some centres undefined), the EC50 [14] is reported as 620 nM.

`CC(C)CCOc1cc(O)c2c(=O)c(O)c(-c3cc(O)c(O)c(O)c3)oc2c1` gave an EC50 (SARS-CoV-2 [2]) of 31500 nM and an IC50 [10] of 1920 nM.

`Cc1ncsc1-c1ccc(CNC(=O)[C@@H]2C[C@@H](O)CN2C(=O)[C@@H](NC(=O)CCOCCOCCOCCn2nnc(COC(=O)N[C@@H](CC(C)C)C(=O)N[C@H](C=O)C[C@@H]3CCNC3=O)c2C)C(C)(C)C)cc1` showed an EC50 [1] of 950 nM.

Work on `COc1ccc(/C=C(\C#N)C(=O)N(c2ccc(-c3ccccc3)cc2)[C@@H](C(=O)N[C@@H](C)c2ccccc2)c2cccnc2)cc1` yielded an EC50 (SARS-CoV-2 [15]) of 6470 nM.

`C[C@H](NC(=O)[C@@H](c1cccnc1)N(C(=O)CC#N)c1ccc(-c2ccccc2)cc1)c1ccccc1` showed an EC50 (SARS-CoV-2 [15]) of 2920 nM and an IC50 [10] of 500 nM.

Compound `CNC(=O)c1cc(C)cc([N+](=O)[O-])c1N1CC[C@]2(CCN(C(=O)c3cncc4cc(O)ccc34)C2)C1` has an IC50 [3] of 49500 nM.

In the case of `Cc1ncsc1-c1ccc(CNC(=O)[C@@H]2C[C@@H](O)CN2C(=O)[C@@H](NC(=O)CCOCCOCCOCCn2nnc(COc3ccc(OC(=O)N[C@@H](CC(C)C)C(=O)N[C@H](C=O)C[C@@H]4CCNC4=O)cc3)c2C)C(C)(C)C)cc1`, the EC50 [1] is reported as 80 nM.
